Key:
[1] = tested on: TK-10; type: cell-based; conditions: Homo sapiens, one dose 10^-5 M, 48 h
[2] = tested on: SNB-19; type: cell-based; conditions: Homo sapiens, one dose 10^-5 M, 48 h, read-out: % growth
[3] = tested on: COLO 205; type: cell-based; conditions: Homo sapiens, one dose 10^-5 M, 48 h
[4] = tested on: A549/ATCC; type: cell-based; conditions: Homo sapiens, one dose 10^-5 M, 48 h
[5] = tested on: K-562; type: cell-based; conditions: Homo sapiens, K562, one dose 10^-5 M, 48 h
[6] = tested on: SNB-75; type: cell-based; conditions: Homo sapiens, one dose 10^-5 M, 48 h
[7] = tested on: SK-OV-3; type: cell-based; conditions: Homo sapiens, one dose 10^-5 M, 48 h
[8] = tested on: T-47D; type: cell-based; conditions: Homo sapiens, T47D, one dose 10^-5 M, 48 h, read-out: % growth
[9] = tested on: UACC-257; type: cell-based; conditions: Homo sapiens, one dose 10^-5 M, 48 h
[10] = tested on: MCF7; type: cell-based; conditions: Homo sapiens, one dose 10^-5 M, 48 h, read-out: % growth
[11] = tested on: NCI-H460; type: cell-based; conditions: Homo sapiens, one dose 10^-5 M, 48 h, read-out: % growth
[12] = tested on: OVCAR-3; type: cell-based; conditions: Homo sapiens, one dose 10^-5 M, 48 h
[13] = tested on: MDA-MB-435; type: cell-based; conditions: Homo sapiens, one dose 10^-5 M, 48 h, read-out: % growth
[14] = tested on: SK-MEL-28; type: cell-based; conditions: Homo sapiens, one dose 10^-5 M, 48 h
[15] = tested on: HCC-2998; type: cell-based; conditions: Homo sapiens, one dose 10^-5 M, 48 h
[16] = tested on: 786-0; type: cell-based; conditions: Homo sapiens, one dose 10^-5 M, 48 h
[17] = tested on: OVCAR-5; type: cell-based; conditions: Homo sapiens, one dose 10^-5 M, 48 h
[18] = tested on: OVCAR-4; type: cell-based; conditions: Homo sapiens, one dose 10^-5 M, 48 h
[19] = tested on: EKVX; type: cell-based; conditions: Homo sapiens, one dose 10^-5 M, 48 h
[20] = tested on: MDA-MB-468; type: cell-based; conditions: Homo sapiens, one dose 10^-5 M, 48 h
[21] = tested on: HS 578T; type: cell-based; conditions: Homo sapiens; one dose 10^-5 M, 48 h; HS 578T; read-out: % growth
[22] = tested on: SF-539; type: cell-based; conditions: Homo sapiens, one dose 10^-5 M, 48 h
[23] = tested on: CCRF-CEM; type: cell-based; conditions: Homo sapiens, one dose 10^-5 M, 48 h
[24] = tested on: NCI/ADR-RES; type: cell-based; conditions: Homo sapiens, one dose 10^-5 M, 48 h
[25] = tested on: DU-145; type: cell-based; conditions: Homo sapiens, one dose 10^-5 M, 48 h
[26] = tested on: HCT-15; type: cell-based; conditions: Homo sapiens, one dose 10^-5 M, 48 h, read-out: % growth
[27] = tested on: MOLT-4; type: cell-based; conditions: Homo sapiens, one dose 10^-5 M, 48 h, read-out: % growth
[28] = tested on: PC-3; type: cell-based; conditions: Homo sapiens, one dose 10^-5 M, 48 h
[29] = tested on: full NCI 60 cell lines panel; conditions: for activity at 10 µM: Homo sapiens, 60 cell, 48 h, read-out: Mean % growth; for activity on all 60 cancer cell lines tested (in words): one dose
[30] = tested on: LOX IMVI; type: cell-based; conditions: Homo sapiens, one dose 10^-5 M, 48 h, read-out: % growth
[31] = tested on: SW-620; type: cell-based; conditions: Homo sapiens, one dose 10^-5 M, 48 h
[32] = tested on: SF-268; type: cell-based; conditions: Homo sapiens, one dose 10^-5 M, 48 h, read-out: % growth
[33] = tested on: UACC-62; type: cell-based; conditions: Homo sapiens, one dose 10^-5 M, 48 h
[34] = tested on: HCT-116; type: cell-based; conditions: Homo sapiens, one dose 10^-5 M, 48 h, read-out: % growth
[35] = tested on: OVCAR-8; type: cell-based; conditions: Homo sapiens, one dose 10^-5 M, 48 h
[36] = tested on: HOP-62; type: cell-based; conditions: Homo sapiens, one dose 10^-5 M, 48 h
[37] = tested on: KM12; type: cell-based; conditions: Homo sapiens, one dose 10^-5 M, 48 h
[38] = tested on: IGROV1; type: cell-based; conditions: Homo sapiens, IGROV-1, one dose 10^-5 M, 48 h, read-out: % growth
[39] = tested on: SK-MEL-5; type: cell-based; conditions: Homo sapiens, one dose 10^-5 M, 48 h, read-out: % growth
[40] = tested on: BT-549; type: cell-based; conditions: Homo sapiens, one dose 10^-5 M, 48 h
[41] = tested on: HT29; type: cell-based; conditions: Homo sapiens, HT-29, one dose 10^-5 M, 48 h
[42] = tested on: A498; type: cell-based; conditions: Homo sapiens, one dose 10^-5 M, 48 h
[43] = tested on: RPMI-8226; type: cell-based; conditions: Homo sapiens, one dose 10^-5 M, 48 h
[44] = tested on: CAKI-1; type: cell-based; conditions: Homo sapiens, CAKI-1, 48 h, one dose 10^-5 M, 48 h
[45] = tested on: SR; type: cell-based; conditions: Homo sapiens, one dose 10^-5 M, 48 h
[46] = tested on: NCI-H522; type: cell-based; conditions: Homo sapiens, one dose 10^-5 M, 48 h
[47] = tested on: MDA-MB-231/ATCC; type: cell-based; conditions: Homo sapiens, one dose 10^-5 M, 48 h
[48] = tested on: ACHN; type: cell-based; conditions: Homo sapiens, one dose 10^-5 M, 48 h
[49] = tested on: MALME-3M; type: cell-based; conditions: Homo sapiens, one dose 10^-5 M, 48 h
[50] = tested on: NCI-H226; type: cell-based; conditions: Homo sapiens, one dose 10^-5 M, 48 h
[51] = tested on: HL-60(TB); type: cell-based; conditions: Homo sapiens, one dose 10^-5 M, 48 h
[52] = tested on: U251; type: cell-based; conditions: Homo sapiens, U-251, one dose 10^-5 M, 48 h
[53] = tested on: HOP-92; type: cell-based; conditions: Homo sapiens, one dose 10^-5 M, 48 h
[54] = tested on: M14; type: cell-based; conditions: Homo sapiens, one dose 10^-5 M, 48 h
[55] = tested on: SK-MEL-2; type: cell-based; conditions: Homo sapiens, one dose 10^-5 M, 48 h
[56] = tested on: UO-31; type: cell-based; conditions: Homo sapiens, UO-31, 48 h, one dose 10^-5 M, 48 h
[57] = tested on: NCI-H23; type: cell-based; conditions: Homo sapiens, one dose 10^-5 M, 48 h, read-out: % growth
[58] = tested on: SF-295; type: cell-based; conditions: Homo sapiens, one dose 10^-5 M, 48 h
[59] = tested on: SN12C; type: cell-based, human; conditions: Homo sapiens, one dose 10^-5 M, 48 h

SMILES: CN(C)c1ccc(-c2nc(S)nc(N)c2C(=N)NN=Cc2ccc(Cl)cc2Cl)cc1 [Compound 4f, 4-amino-N'-[(2,4-dichlorophenyl)methylene]-6-[4-(dimethylamino)phenyl]-2-mercapto pyrimidine-5-carboximidohydrazide]
- % cell growth at 10 µM [1]: 114%
- activity at 10 µM [2]: 90.4%
- % growth at 10 µM [3]: 166%
- % growth at 10 µM [4]: 107%
- % growth at 10 µM [5]: 70.2%
- % growth at 10 µM [6]: 109%
- % growth at 10 µM [7]: 125%
- activity at 10 µM [8]: 104%
- percent cell growth at 10 µM [9]: 109%
- activity at 10 µM [10]: 75.3%
- activity at 10 µM [11]: 116%
- % growth at 10 µM [12]: 110%
- activity at 10 µM [13]: 91.8%
- % cell growth at 10 µM [14]: 104%
- % growth at 10 µM [15]: 115%
- % growth at 10 µM [16]: 84.9%
- percent cell growth at 10 µM [17]: 107%
- % growth at 10 µM [18]: 104%
- % cell growth at 10 µM [19]: 102%
- percent cell growth at 10 µM [20]: 113%
- activity at 10 µM [21]: 96.8%
- % growth at 10 µM [22]: 81.6%
- % cell growth at 10 µM [23]: 83.7%
- cell growth percent at 10 µM [24]: 101%
- % growth at 10 µM [25]: 111%
- activity at 10 µM [26]: 76.7%
- activity at 10 µM [27]: 100%
- percent cell growth at 10 µM [28]: 89.8%
- activity at 10 µM [29]: 98.9%
- activity on all 60 cancer cell lines tested (in words) [29]: weak activity
- activity at 10 µM [30]: 83.3%
- % growth at 10 µM [31]: 100%
- activity at 10 µM [32]: 100%
- % growth at 10 µM [33]: 92.3%
- activity at 10 µM [34]: 67.7%
- % growth of cells at 10 µM [35]: 106%
- % growth at 10 µM [36]: 103%
- % growth at 10 µM [37]: 77.5%
- activity at 10 µM [38]: 102%
- activity at 10 µM [39]: 99.3%
- % cell growth at 10 µM [40]: 119%
- % growth at 10 µM [41]: 107%
- % growth at 10 µM [42]: 114%
- % growth at 10 µM [43]: 80.6%
- % growth at 10 µM [44]: 102%
- percent cell growth at 10 µM [45]: 73.2%
- % growth at 10 µM [46]: 97.2%
- % growth at 10 µM [47]: 99.5%
- % growth at 10 µM [48]: 107%
- % growth at 10 µM [49]: 96.8%
- % growth at 10 µM [50]: 95.5%
- % growth at 10 µM [51]: 88.4%
- % growth at 10 µM [52]: 93.2%
- % growth at 10 µM [53]: 106%
- % growth at 10 µM [54]: 103%
- % growth at 10 µM [55]: 108%
- % cell growth at 10 µM [56]: 70.2%
- activity at 10 µM [57]: 99.6%
- % cell growth at 10 µM [58]: 92.7%
- % growth at 10 µM [59]: 93.7%

SMILES: CN(C)c1ccc(-c2nc(S)nc(N)c2C(=N)NN=Cc2ccc(Br)cc2)cc1 [Compound 4e, 4-amino-N'-[(4-bromophenyl)methylene]-6-[4-(dimethylamino)phenyl]-2-mercapto pyrimidine-5-carboximidohydrazide]
- % cell growth at 10 µM [1]: 115%
- activity at 10 µM [2]: 99.4%
- % growth at 10 µM [3]: 161%
- % growth at 10 µM [4]: 108%
- % growth at 10 µM [5]: 99.6%
- % growth at 10 µM [6]: 114%
- % growth at 10 µM [7]: 124%
- activity at 10 µM [8]: 97.5%
- percent cell growth at 10 µM [9]: 109%
- activity at 10 µM [10]: 93.9%
- activity at 10 µM [11]: 107%
- % growth at 10 µM [12]: 110%
- activity at 10 µM [13]: 101%
- % cell growth at 10 µM [14]: 104%
- % growth at 10 µM [15]: 112%
- % growth at 10 µM [16]: 103%
- percent cell growth at 10 µM [17]: 104%
- % growth at 10 µM [18]: 102%
- % cell growth at 10 µM [19]: 98.6%
- percent cell growth at 10 µM [20]: 111%
- activity at 10 µM [21]: 108%
- % growth at 10 µM [22]: 101%
- % cell growth at 10 µM [23]: 88.8%
- cell growth percent at 10 µM [24]: 102%
- % growth at 10 µM [25]: 109%
- activity at 10 µM [26]: 102%
- activity at 10 µM [27]: 103%
- percent cell growth at 10 µM [28]: 91%
- activity at 10 µM [29]: 104%
- activity on all 60 cancer cell lines tested (in words) [29]: weak activity
- activity at 10 µM [30]: 98.6%
- % growth at 10 µM [31]: 107%
- activity at 10 µM [32]: 101%
- % growth at 10 µM [33]: 94%
- activity at 10 µM [34]: 101%
- % growth of cells at 10 µM [35]: 113%
- % growth at 10 µM [36]: 108%
- % growth at 10 µM [37]: 110%
- activity at 10 µM [38]: 102%
- activity at 10 µM [39]: 101%
- % cell growth at 10 µM [40]: 107%
- % growth at 10 µM [41]: 104%
- % growth at 10 µM [42]: 118%
- % growth at 10 µM [43]: 84.4%
- % growth at 10 µM [44]: 99.6%
- percent cell growth at 10 µM [45]: 91.5%
- % growth at 10 µM [46]: 98.5%
- % growth at 10 µM [47]: 102%
- % growth at 10 µM [48]: 105%
- % growth at 10 µM [49]: 98.6%
- % growth at 10 µM [50]: 95.7%
- % growth at 10 µM [51]: 91.6%
- % growth at 10 µM [52]: 112%
- % growth at 10 µM [53]: 112%
- % growth at 10 µM [54]: 98.9%
- % growth at 10 µM [55]: 107%
- % cell growth at 10 µM [56]: 69.9%
- activity at 10 µM [57]: 99.3%
- % cell growth at 10 µM [58]: 104%
- % growth at 10 µM [59]: 102%
